We go through six compounds from patent US4728732A, “C-3'acylsulfonamido cephalosporin analogs” (American Home Products Corporation, priority 1985, dated 1988).

Holding throughout (format): cell-based
For assay [1], the system named is Streptococcus faecalis ATCC 29212. In words: MIC, procedure A (two-fold dilutions in broth, Microtiter plate). The conditions noted are these: Enterococcus faecalis, ATCC29212. On the procedure:
(§1) The compounds of the invention are tested for their antibacterial activity. The test can be carried out in two ways:
(§2) A. The organisms used in the test comprise the following:
(§3) Staphylococcus aureus (penicillin-sensitive and resistant), Pseudomonas aeruginosa, Escherichia coli, […] pneumoniae, Bordetella bronchiseptica, Proteus vulgaris, P. mirabilis, Acinetobacter calcoaceticus.
(§4) Test organisms may be added or deleted in order to reflect current clinical patterns of antibiotic susceptibility or shifts in pathogenic potential.
(§5) Stock solution of appropriate medium (e.g. Mueller-Hinton Broth) is sterilized. Starting at a predetermined concentration (e.g. 250 μg/ml), two-fold dilutions are made with the Dynatech Automatic Diluter in a Microtiter plate of 8 rows of 12 wells each in which 11 wells in each row contain 50 μl of medium (e.g. Mueller-Hinton Broth) and the 12th well contains in 100 μl an aliquot of the compound to be tested. The diluted plates are inoculated using the Dynatech Automatic Inoculator which delivers the final inoculum (e.g. 10^5 cfu/ml of a seven-hour culture which has been incubated at 35° C.).
(§6) Plates are sealed with tape and incubated (e.g. 18 hours at 35° C.).

Assay [2] deals with Klebsiella pneunomiae KL-1. The assay is described as above. The conditions noted are these: KL1. As to the method: as §1, §2, §3, §4, §5, §6
For assay [3], the system named is Proteus vulgaris A 84354 1. The assay is described as above. The conditions noted are these: A843541. On the procedure: as §1, §2, §3, §4, §5, §6
Assay [4] relates to Staphylococcus aureus ATCC 29213. The assay is described as above. The conditions noted are these: ATCC29213. As to the method:
as §1, §2, §3, §4, §5, §6

Assay [5] has as its system Serratia marcescens ATCC 13880. Described as above. Particulars: ATCC13880. On the procedure: as §1, §2, §3, §4, §5, §6
Assay [6] concerns Pseudomonas aeruginosa ATCC 27853. The assay is described as above. Particulars: ATCC27853. On the procedure:
as §1, §2, §3, §4, §5, §6

The subject of assay [7] is Enterobacter cloacae ATCC 13047. Described as above. Particulars: ATCC13047. As to the method:
as §1, §2, §3, §4, §5, §6

For assay [8], the system named is Escherichia coli ATCC 25922. The assay is described as above. Particulars: ATCC25922. As to the method:
as §1, §2, §3, §4, §5, §6

In assay [9] the test system is Streptococcus faecalis ATCC 29212. In words: MIC, procedure B (agar, Steers replicating device). Particulars: Enterococcus faecalis, ATCC29212. As to the method:
as §1
(§7) B. The organisms used in the test comprise the following:
as §3, §4
(§8) Organisms are normally grown for 18 hours in Brain Heart Infusion at 35° C. Cultures are adjusted with saline to MacFarland No. 1.5 standard prior to use.
(§9) Stock concentrations (e.g […] or units per ml) are prepared in a suitable vehicle. Two-fold dilutions are made. One ml quantities of each dilution are incorporated in 9 ml of the appropriate agar (e.g. Seed) in sterile Petri plates. The hardened surface is inoculated with test organisms by use of a Steers replicating device. The plates are incubated (e.g. 18 hours at 35° C.) and activity is determined.

Assay [10] relates to Klebsiella pneunomiae KL-1. As to the kind of experiment: MIC, procedure B (agar, Steers replicating device). The conditions noted are these: KL1. On the procedure: as §1, §7, §3, §4, §8, §9
The subject of assay [11] is Proteus vulgaris A 84354 1. In words: MIC, procedure B (agar, Steers replicating device). The conditions noted are these: A843541. As to the method:
as §1, §7, §3, §4, §8, §9

In assay [12] the test system is Staphylococcus aureus ATCC 29213. In words: MIC, procedure B (agar, Steers replicating device). The conditions noted are these: ATCC29213. On the procedure: as §1, §7, §3, §4, §8, §9
Assay [13] relates to Serratia marcescens ATCC 13880. As to the kind of experiment: MIC, procedure B (agar, Steers replicating device). The conditions noted are these: ATCC13880. As to the method:
as §1, §7, §3, §4, §8, §9

Assay [14] relates to Pseudomonas aeruginosa ATCC 27853. In words: MIC, procedure B (agar, Steers replicating device). Particulars: ATCC27853. As to the method: as §1, §7, §3, §4, §8, §9
The test system of assay [15] is Enterobacter cloacae ATCC 13047. As to the kind of experiment: MIC, procedure B (agar, Steers replicating device). Particulars: ATCC13047. As to the method: as §1, §7, §3, §4, §8, §9
The subject of assay [16] is Escherichia coli ATCC 25922. As to the kind of experiment: MIC, procedure B (agar, Steers replicating device). The conditions noted are these: ATCC25922. As to the method: as §1, §7, §3, §4, §8, §9

The structures appear in SMILES notation. In brackets after ≈: the same amount, converted by molar mass.

Usually MIC stands for the least concentration at which growth counts as inhibited. Read a high MIC as a less susceptible organism. In the case of `CO/N=C(\C(=O)N[C@@H]1C(=O)N2C(C(=O)OC(C)(C)C)=C(CN3C(=O)c4cscc4S3(=O)=O)CS[C@H]12)c1csc(N)n1` [1 B.], the MIC in assay [1] was found to be 256 µg/mL (≈ 400 µM); in [2], 4 µg/mL (≈ 6.24 µM); in assay [3], 4 µg/mL (≈ 6.24 µM); in assay [4], 32 µg/mL (≈ 49.9 µM); in assay [5], 32 µg/mL (≈ 49.9 µM); in [6] it was 128 µg/mL (≈ 200 µM). In addition, the MIC in assay [7] is 64 µg/mL (≈ 99.9 µM); in assay [8], 8 µg/mL (≈ 12.5 µM).
With `CO/N=C(\C(=O)N[C@@H]1C(=O)N2C(C(=O)O)=C(CN3C(=O)c4cscc4S3(=O)=O)CS[C@H]12)c1csc(N)n1` [1 C.], the MIC in assay [9] was determined as 8 µg/mL (≈ 13.7 µM); in assay [10], 1 µg/mL (≈ 1.71 µM); in [11] it was 0.5 µg/mL (≈ 0.855 µM); in assay [12] it was 4 µg/mL (≈ 6.84 µM); in assay [13] it was 2 µg/mL (≈ 3.42 µM); in assay [14] it was 64 µg/mL (≈ 109 µM). In addition, the figures for the MIC in assay [15] and in assay [16] were 4 µg/mL (≈ 6.84 µM) and 2 µg/mL (≈ 3.42 µM), respectively.
In the case of `CO/N=C(\C(=O)N[C@@H]1C(=O)N2C(C(=O)OC(C)(C)C)=C(CN3C(=O)c4ccccc4S3(=O)=O)CS[C@H]12)c1csc(N)n1` [2 B.], the MIC was 16 µg/mL (≈ 25.2 µM) in [1]; 1 µg/mL (≈ 1.58 µM) in assay [2]; 1 µg/mL (≈ 1.58 µM) in [3]; 8 µg/mL (≈ 12.6 µM) in [4]; 8 µg/mL (≈ 12.6 µM) in assay [5]; 64 µg/mL (≈ 101 µM) in assay [6]. Further, the MIC in assay [7] was 16 µg/mL (≈ 25.2 µM); in assay [8], 2 µg/mL (≈ 3.15 µM).
On to `CO/N=C(\C(=O)N[C@@H]1C(=O)N2C(C(=O)O)=C(CN3C(=O)c4ccccc4S3(=O)=O)CS[C@H]12)c1csc(N)n1` [2 C.], for which the MIC is 8 µg/mL (≈ 13.8 µM) in [9]; 0.5 µg/mL (≈ 0.864 µM) in assay [10]; 0.5 µg/mL (≈ 0.864 µM) in [11]; 4 µg/mL (≈ 6.91 µM) in assay [12]; 4 µg/mL (≈ 6.91 µM) in assay [13]; 32 µg/mL (≈ 55.3 µM) in assay [14]. Also, the MIC in assay [15] worked out at 8 µg/mL (≈ 13.8 µM); in assay [16], 1 µg/mL (≈ 1.73 µM).
Regarding `CO/N=C(\C(=O)N[C@@H]1C(=O)N2C(C(=O)OC(C)(C)C)=C(CN3C(=O)c4cccnc4S3(=O)=O)CS[C@H]12)c1csc(N)n1` [3 B.], the MIC in assay [1] was 256 µg/mL (≈ 403 µM); in assay [2] it was 2 µg/mL (≈ 3.15 µM); in [3], 8 µg/mL (≈ 12.6 µM); in assay [4], 128 µg/mL (≈ 201 µM); in assay [5] it was 8 µg/mL (≈ 12.6 µM); in assay [6], 256 µg/mL (≈ 403 µM). Moreover, the MIC in [7] is 128 µg/mL (≈ 201 µM); in assay [8], 4 µg/mL (≈ 6.29 µM).
Regarding `CO/N=C(\C(=O)N[C@@H]1C(=O)N2C(C(=O)O)=C(CN3C(=O)c4cccnc4S3(=O)=O)CS[C@H]12)c1csc(N)n1` [3 C.], the minimum inhibitory concentration (MIC) in [9] came to 128 µg/mL (≈ 221 µM); in assay [10], 1 µg/mL (≈ 1.73 µM); in [11], 2 µg/mL (≈ 3.45 µM); in assay [12], 32 µg/mL (≈ 55.2 µM); in assay [13] it was 2 µg/mL (≈ 3.45 µM); in assay [14], 128 µg/mL (≈ 221 µM). Also, the MIC in [15] came to 16 µg/mL (≈ 27.6 µM); in [16], 2 µg/mL (≈ 3.45 µM).
